The source of these data is BindingDB's records for doi:10.1021/jm0211063 (Sapienza University of Rome, 2003).

Bounds are passed on as bounds.

The term IC50 denotes the concentration needed to halve the response being measured. Higher therefore signals lower potency.

In assay [1] the target is T1, Gag-Pol polyprotein [588-1027,K690N]/[588-1147,K690N] (Human immunodeficiency virus 1, UniProt P04585, K690N).
T1 construct: 588-1027; 588-1147
The assay can be described thus: HIV-1 RT Assay. As to conditions: pH 7.8; 37 °C.

Assay [2] deals with T2, Gag-Pol polyprotein [588-1127,Y768C]/[588-1147,Y768C] (Human immunodeficiency virus 1, UniProt P04585, Y768C).
T2 construct: 588-1127; 588-1147
Briefly: HIV-1 RT Assay. As to conditions: pH 7.8; 37 °C.

For the compound `Cc1cc(C)cc(S(=O)(=O)c2c(C(N)=O)[nH]c3ccc(Cl)cc23)c1` [5-chloro-3-[(3,5-dimethylbenzene)sulfonyl]-1H-indole-2-carboxamide], the IC50 in assay [1] is over 5000 nM; in assay [2], 130 nM.

In the case of `Cc1ccc(S(=O)(=O)c2c(C(N)=O)[nH]c3ccc(Cl)cc23)cc1` [5-chloro-3-[(4-methylbenzene)sulfonyl]-1H-indole-2-carboxamide], the values for the IC50 in assay [1] and in assay [2] were over 5000 nM and 110 nM, respectively.

`NC(=O)c1[nH]c2ccc(Cl)cc2c1S(=O)(=O)c1ccccc1` [5Cl3PhSO2-2IndolCONH2]: the half-inhibitory concentration (IC50) is over 5000 nM in assay [1] and 160 nM in assay [2].
